The source made the active and inactive calls.
Key:
[1] = molecular target: G-protein coupled receptor 35 (Homo sapiens, UniProt Q9HC97); experiment: GPR35 antagonists blocking zaprinast-driven arrestin recruitment, primary screen, imaging, U2OS, beta-arrestin-GFP, zaprinast agonist (AID 2058); format: functional;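 further: antagonist potency meaning inhibition of agonist-induced arrestin redistribution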
[2] = molecular target: T1, Streptokinase A (Streptococcus pyogenes serotype M1, UniProt P10520); experiment: S. pyogenes streptokinase expression inhibitors, potency, dose response, plasminogen activation absorbance, OD405 (AID 1914); format: functional, Streptococcus pyogenes M1 GAS;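 further: secreted streptokinase activity via plasminogen activation per viability signal from cell pellet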
T1 sequence (P10520 whole entry): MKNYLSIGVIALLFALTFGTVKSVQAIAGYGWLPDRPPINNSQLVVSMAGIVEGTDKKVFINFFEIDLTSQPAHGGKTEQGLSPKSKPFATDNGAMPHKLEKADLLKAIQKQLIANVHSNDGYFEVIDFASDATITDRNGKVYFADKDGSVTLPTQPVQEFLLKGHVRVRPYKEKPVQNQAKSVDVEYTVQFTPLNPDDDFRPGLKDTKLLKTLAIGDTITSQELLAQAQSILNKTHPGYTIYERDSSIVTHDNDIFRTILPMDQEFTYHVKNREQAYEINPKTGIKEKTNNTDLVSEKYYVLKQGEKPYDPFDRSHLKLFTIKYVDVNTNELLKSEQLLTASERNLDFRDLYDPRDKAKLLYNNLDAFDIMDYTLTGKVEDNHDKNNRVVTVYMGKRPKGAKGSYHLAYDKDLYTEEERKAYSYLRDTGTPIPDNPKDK

[3] = molecular target: T2, Hexokinase HKDC1 (Homo sapiens, UniProt Q2TB90); experiment: HKDC1 hexokinase inhibitors, dose response, biochemical, W721R variant (AID 504729); format: functional
T2 sequence (Q2TB90 whole entry): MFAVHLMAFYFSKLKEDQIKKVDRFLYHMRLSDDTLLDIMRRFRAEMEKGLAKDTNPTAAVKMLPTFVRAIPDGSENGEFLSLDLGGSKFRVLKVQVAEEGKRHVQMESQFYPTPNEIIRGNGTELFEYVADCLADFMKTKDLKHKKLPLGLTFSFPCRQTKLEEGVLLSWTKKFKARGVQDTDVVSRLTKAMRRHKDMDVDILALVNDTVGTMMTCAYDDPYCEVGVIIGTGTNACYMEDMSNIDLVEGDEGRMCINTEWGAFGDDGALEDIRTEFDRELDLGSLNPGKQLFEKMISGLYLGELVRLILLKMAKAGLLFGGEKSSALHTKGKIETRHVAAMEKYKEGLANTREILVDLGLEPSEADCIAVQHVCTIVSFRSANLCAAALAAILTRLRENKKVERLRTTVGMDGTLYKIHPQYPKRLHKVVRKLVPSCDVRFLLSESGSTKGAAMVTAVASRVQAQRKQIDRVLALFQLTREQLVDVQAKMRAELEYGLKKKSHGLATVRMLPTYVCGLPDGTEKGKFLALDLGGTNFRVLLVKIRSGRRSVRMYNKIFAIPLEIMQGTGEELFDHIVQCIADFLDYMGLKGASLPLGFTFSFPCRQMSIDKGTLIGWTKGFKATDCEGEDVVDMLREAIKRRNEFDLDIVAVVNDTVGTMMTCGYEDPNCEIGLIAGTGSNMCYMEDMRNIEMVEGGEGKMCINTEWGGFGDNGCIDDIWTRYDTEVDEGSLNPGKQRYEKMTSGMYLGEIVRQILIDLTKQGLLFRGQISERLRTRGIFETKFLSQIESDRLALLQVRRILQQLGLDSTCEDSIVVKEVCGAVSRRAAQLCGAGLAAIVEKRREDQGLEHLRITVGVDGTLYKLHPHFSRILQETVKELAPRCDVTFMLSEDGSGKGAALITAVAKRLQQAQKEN

[4] = molecular target: Procathepsin L (Homo sapiens, UniProt P07711)
[5] = molecular target: Estrogen receptor beta (Homo sapiens, UniProt Q92731); experiment: ERβ–SRC-3 coactivator interaction inhibitors, confirmation, orthogonal assay, biochemical, ELISA, streptavidin-HRP readout (AID 1060)
[6] = molecular target: Albumin (Bos taurus, UniProt P02769); experiment: Counterscreen for inhibitors of T-cell receptor (TCR)-CD3 interaction: Fluorescence-based biochemical high throughput dose response assay to identify inhibitors of T-cell receptor (TCR)-CD3 interaction using a TAMRA-labeled BSA probe.; format: functional
[7] = molecular target: Tyrosine-protein kinase SYK (Homo sapiens, UniProt P43405); format: functional
[8] = molecular target: Death-associated protein kinase 3 (Homo sapiens, UniProt O43293); format: functional;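 further: measured as one member of a kinome-wide profiling panel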
[9] = molecular target: SRSF protein kinase 1 (Homo sapiens, UniProt Q96SB4); format: functional;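 further: measured as one member of a kinome-wide kinase profiling panel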
[10] = molecular target: Aurora kinase A (Homo sapiens, UniProt O14965); format: functional;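 further: value from the Navigating the Kinome kinase panel profiling, panel entry STK6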
[11] = molecular target: Tyrosine-protein kinase ITK/TSK (Homo sapiens, UniProt Q08881); format: functional;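 further: affinity for ITK measured as one member of a broad kinase panel profiling binding across the kinome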
[12] = molecular target: Serine/threonine-protein kinase TAO1 (Homo sapiens, UniProt Q7L7X3); format: functional
[13] = molecular target: High affinity nerve growth factor receptor (Homo sapiens, UniProt P04629); format: functional;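 further: NTRK1 tested as one member of a kinome-wide profiling panel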
[14] = molecular target: MAP kinase-interacting serine/threonine-protein kinase 2 (Homo sapiens, UniProt Q9HBH9); format: functional
[15] = molecular target: Vascular endothelial growth factor receptor 2 (Homo sapiens, UniProt P35968); format: functional
[16] = molecular target: Ephrin type-A receptor 2 (Homo sapiens, UniProt P29317); format: functional;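 further: EPHA2 tested as one member of a kinome-wide kinase panel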
[17] = molecular target: STE20-like serine/threonine-protein kinase (Homo sapiens, UniProt Q9H2G2); format: functional
[18] = molecular target: Glycogen synthase kinase-3 beta (Homo sapiens, UniProt P49841); format: functional;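 further: value comes from a broad kinome profiling panel, with GSK3B as the panel member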
[19] = molecular target: BDNF/NT-3 growth factors receptor (Homo sapiens, UniProt Q16620); format: functional;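 further: NTRK2 measured as one member of a broad kinome-wide kinase profiling panel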
[20] = tested on: BJ; experiment: cytotoxicity toward BJ-TERT fibroblasts, dose response, cell-based, RAS-independent, luminescence (AID 1933); format: functional; settings: Homo sapiens
[21] = molecular target: T3, Caspase-3 (Homo sapiens, UniProt P42574); experiment: Dose-response confirmation of uHTS inhibitor hits of Sentrin-Specific Protease 8 in a Caspase-3 Fluorescence assay.; format: functional
T3 sequence (P42574 whole entry): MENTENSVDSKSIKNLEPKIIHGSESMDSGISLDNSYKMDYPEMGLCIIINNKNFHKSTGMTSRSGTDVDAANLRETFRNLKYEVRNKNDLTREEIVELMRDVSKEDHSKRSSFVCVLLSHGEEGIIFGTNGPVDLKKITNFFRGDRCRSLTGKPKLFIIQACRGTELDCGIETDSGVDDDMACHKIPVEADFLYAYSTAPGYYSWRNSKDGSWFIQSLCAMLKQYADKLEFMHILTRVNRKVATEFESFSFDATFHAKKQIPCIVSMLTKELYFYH

Chain of BDNF/NT-3 growth factors receptor (Q16620 whole entry): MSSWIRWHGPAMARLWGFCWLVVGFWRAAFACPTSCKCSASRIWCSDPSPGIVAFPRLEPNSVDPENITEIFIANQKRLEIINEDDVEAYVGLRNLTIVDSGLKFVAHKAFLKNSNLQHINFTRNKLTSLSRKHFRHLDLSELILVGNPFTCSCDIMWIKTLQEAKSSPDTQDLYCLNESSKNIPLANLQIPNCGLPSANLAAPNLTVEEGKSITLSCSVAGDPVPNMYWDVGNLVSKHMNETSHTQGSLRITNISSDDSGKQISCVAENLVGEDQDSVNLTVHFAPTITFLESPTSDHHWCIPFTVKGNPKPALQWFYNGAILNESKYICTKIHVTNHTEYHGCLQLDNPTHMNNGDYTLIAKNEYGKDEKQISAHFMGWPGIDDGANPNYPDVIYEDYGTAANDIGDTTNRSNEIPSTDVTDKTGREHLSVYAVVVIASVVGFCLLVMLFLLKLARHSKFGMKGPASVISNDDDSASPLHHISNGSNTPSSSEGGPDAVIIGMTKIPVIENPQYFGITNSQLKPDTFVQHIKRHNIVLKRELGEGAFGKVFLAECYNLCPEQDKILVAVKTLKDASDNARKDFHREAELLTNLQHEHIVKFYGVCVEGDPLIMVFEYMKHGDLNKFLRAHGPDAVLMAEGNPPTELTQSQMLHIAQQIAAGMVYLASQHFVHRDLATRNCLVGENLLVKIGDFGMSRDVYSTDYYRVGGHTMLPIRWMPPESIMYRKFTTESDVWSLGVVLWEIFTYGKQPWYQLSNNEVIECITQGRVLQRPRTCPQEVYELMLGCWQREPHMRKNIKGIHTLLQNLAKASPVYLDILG
Chain of Glycogen synthase kinase-3 beta (P49841 whole entry): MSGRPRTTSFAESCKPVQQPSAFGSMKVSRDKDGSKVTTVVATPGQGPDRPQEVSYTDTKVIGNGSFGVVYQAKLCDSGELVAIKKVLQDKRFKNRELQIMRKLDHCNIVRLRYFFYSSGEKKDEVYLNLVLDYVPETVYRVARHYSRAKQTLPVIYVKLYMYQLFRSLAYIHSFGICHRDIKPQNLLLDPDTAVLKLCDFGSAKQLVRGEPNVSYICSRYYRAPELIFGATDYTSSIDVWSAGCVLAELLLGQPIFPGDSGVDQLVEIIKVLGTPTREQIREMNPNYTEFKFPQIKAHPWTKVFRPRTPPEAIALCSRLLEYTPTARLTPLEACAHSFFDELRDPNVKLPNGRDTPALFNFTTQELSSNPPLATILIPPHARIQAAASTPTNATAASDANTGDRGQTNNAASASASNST
Chain of MAP kinase-interacting serine/threonine-protein kinase 2 (Q9HBH9 whole entry): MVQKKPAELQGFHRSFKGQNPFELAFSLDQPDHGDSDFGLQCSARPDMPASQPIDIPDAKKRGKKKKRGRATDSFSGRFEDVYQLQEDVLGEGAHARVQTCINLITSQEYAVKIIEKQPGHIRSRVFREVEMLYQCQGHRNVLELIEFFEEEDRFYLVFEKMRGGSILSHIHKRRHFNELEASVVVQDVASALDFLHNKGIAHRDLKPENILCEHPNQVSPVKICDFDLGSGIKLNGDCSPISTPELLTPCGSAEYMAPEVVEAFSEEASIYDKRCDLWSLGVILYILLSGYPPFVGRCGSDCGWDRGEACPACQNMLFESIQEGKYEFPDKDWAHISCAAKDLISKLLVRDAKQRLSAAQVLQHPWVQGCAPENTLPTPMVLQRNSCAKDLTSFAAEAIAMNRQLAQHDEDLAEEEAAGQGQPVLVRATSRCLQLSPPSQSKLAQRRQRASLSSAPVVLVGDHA
Chain of Vascular endothelial growth factor receptor 2 (P35968 whole entry): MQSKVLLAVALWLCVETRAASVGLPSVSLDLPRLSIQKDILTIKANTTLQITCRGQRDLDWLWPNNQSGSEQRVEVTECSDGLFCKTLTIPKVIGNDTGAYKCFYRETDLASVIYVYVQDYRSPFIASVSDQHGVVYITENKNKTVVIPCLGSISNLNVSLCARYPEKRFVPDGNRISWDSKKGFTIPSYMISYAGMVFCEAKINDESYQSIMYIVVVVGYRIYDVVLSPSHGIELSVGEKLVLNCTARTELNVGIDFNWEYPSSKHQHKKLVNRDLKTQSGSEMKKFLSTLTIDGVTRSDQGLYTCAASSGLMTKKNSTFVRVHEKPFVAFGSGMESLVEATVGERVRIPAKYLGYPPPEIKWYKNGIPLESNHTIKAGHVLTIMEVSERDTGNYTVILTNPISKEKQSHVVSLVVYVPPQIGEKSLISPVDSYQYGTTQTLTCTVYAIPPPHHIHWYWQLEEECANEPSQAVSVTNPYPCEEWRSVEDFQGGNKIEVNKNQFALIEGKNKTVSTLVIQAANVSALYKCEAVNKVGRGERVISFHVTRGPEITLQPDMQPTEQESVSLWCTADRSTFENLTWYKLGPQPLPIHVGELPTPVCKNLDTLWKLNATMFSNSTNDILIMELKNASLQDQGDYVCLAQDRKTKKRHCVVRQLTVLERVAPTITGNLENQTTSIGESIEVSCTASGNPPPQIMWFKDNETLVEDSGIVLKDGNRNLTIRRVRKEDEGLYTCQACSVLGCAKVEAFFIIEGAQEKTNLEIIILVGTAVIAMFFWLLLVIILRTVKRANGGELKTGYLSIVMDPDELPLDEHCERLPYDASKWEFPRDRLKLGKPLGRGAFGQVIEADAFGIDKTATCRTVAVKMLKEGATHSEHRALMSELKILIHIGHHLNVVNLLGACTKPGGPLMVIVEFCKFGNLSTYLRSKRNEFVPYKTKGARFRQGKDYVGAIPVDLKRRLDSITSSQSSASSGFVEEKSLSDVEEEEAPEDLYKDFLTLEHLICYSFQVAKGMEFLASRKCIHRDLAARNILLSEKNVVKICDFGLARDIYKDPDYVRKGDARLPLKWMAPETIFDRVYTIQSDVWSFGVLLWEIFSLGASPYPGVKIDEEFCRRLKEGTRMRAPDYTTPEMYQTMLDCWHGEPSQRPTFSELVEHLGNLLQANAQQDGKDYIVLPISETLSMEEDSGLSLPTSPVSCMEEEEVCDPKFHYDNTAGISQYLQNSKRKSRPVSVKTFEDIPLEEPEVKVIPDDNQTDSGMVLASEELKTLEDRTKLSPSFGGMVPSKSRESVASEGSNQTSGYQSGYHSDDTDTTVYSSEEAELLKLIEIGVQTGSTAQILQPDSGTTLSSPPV
Chain of Albumin (P02769 whole entry): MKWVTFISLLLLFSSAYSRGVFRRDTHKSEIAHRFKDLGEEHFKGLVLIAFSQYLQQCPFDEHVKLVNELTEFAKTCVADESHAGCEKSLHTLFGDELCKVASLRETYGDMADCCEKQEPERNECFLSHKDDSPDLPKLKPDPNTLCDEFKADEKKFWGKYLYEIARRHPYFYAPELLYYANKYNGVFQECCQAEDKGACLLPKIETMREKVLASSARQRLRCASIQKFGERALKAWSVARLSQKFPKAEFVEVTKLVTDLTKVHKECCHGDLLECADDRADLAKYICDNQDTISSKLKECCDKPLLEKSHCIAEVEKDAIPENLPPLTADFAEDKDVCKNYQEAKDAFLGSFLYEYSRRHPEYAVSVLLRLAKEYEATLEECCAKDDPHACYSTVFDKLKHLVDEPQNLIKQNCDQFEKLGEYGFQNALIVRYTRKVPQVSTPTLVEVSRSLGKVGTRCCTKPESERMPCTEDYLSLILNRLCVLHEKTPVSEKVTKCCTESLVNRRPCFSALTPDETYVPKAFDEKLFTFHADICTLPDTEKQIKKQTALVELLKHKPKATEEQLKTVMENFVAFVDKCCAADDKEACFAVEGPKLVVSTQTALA
Chain of Aurora kinase A (O14965 whole entry): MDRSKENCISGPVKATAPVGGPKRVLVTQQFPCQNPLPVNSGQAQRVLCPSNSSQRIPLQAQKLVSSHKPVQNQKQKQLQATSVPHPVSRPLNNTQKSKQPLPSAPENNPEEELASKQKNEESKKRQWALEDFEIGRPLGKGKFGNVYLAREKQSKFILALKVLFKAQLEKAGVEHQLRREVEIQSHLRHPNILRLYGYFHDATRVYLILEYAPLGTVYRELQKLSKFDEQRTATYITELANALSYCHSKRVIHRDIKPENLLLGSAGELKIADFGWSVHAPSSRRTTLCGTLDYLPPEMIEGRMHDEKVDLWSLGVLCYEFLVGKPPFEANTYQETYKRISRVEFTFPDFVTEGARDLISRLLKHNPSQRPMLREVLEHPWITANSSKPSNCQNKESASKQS
Chain of G-protein coupled receptor 35 (Q9HC97 whole entry): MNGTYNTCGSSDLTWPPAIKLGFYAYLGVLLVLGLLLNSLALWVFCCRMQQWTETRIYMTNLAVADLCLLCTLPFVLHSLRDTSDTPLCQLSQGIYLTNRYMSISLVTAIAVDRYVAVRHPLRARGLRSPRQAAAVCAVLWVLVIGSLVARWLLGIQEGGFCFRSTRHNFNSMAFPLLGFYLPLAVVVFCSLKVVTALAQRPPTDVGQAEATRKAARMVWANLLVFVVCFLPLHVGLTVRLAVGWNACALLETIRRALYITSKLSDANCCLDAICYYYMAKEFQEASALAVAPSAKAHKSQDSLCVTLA
Chain of Tyrosine-protein kinase ITK/TSK (Q08881 whole entry): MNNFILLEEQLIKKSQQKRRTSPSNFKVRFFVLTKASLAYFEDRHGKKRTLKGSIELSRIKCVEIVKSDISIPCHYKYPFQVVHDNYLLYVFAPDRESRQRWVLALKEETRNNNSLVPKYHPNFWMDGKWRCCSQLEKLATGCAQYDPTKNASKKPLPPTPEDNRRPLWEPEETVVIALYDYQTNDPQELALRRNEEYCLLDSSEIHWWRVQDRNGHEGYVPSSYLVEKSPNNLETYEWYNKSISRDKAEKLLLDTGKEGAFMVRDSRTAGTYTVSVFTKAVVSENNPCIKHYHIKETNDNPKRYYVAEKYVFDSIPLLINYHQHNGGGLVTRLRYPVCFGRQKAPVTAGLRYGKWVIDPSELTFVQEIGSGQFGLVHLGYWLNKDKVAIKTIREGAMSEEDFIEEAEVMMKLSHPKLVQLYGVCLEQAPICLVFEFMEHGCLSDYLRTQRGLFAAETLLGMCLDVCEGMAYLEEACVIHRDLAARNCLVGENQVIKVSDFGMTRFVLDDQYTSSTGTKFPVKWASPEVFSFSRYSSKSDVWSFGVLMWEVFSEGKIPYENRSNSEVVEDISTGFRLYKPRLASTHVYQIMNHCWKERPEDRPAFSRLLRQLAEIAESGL

Question: What does the source list for CC(=O)N(C1=C(Cl)C(=O)c2ccccc2C1=O)C1CCCCC1?
Answer: IC50 [1]: 5550 nM (active); EC50 [2]: > 150000 nM (not active); IC50 [3]: 7150 nM (active)

Question: For Oc1ccc(-c2cn3c(n2)SCC3)cc1O, which IC50 [4] is on record?
Answer: > 59600 nM (not active)

Question: And the IC50 [5]?
Answer: 10700 nM (not active)

Question: What about the IC50 [6] of the same compound?
Answer: > 94100 nM (inactive)

Question: O=C1Nc2ccc3ncsc3c2C1=CNc1ccc(S(=O)(=O)Nc2ccccn2)cc1 was tested. Which Ki [7] did it give?
Answer: > 1580 nM (inactive)

Question: What about the Ki [8] of the same compound?
Answer: 79.4 nM (active)

Question: What about the Ki [9] of the same compound?
Answer: 1000 nM (active)

Question: What about the Ki [10] of the same compound?
Answer: 15.8 nM (active)

Question: And the Ki [11]?
Answer: 126 nM (active)

Question: And the Ki [12]?
Answer: 1580 nM (active)

Question: And the Ki [13]?
Answer: 20 nM (active)

Question: And the Ki [14]?
Answer: 126 nM (active)

Question: And the Ki [15]?
Answer: 25.1 nM (active)

Question: And the Ki [16]?
Answer: 794 nM (active)

Question: And the Ki [17]?
Answer: 126 nM (active)

Question: What about the Ki [18] of the same compound?
Answer: 3.16 nM (active)

Question: What about the Ki [19] of the same compound?
Answer: 79.4 nM (active)

Question: With Cc1ccc(NC2=C/C(=N\S(=O)(=O)c3cccs3)c3ccccc3C2=O)c(C)c1 as the compound, how does the EC50 [20] read?
Answer: 2510 nM (active)

Question: How did the IC50 [21] turn out when COc1ccc(/C=N/NC(=O)c2nn(-c3ccccc3)c(=O)c3c(N)scc23)cc1 was run?
Answer: 2150 nM (active)

Source: ChEMBL document CHEMBL1201862, “PubChem BioAssay data set” (2004)
